Laboratory results as given in patent US20230226198A1, “Artemisinin Derivatives” (DA ZEN THERANOSTICS, INC., priority 2019, published 2023).
“Also recorded” adds a separate entry of the source.

Assays:
Type in all cases: cell-based, human
C4-2B MDVR cells [1] = assay: Seahorse XF mitochondrial function (OCR/ECAR); conditions: 5 uM
Protocol: Example 5 C: To determine mitochondrial function of cancer cells (here C4-2B MDVR), the cells are treated with vehicle, DZ (5 uM), DHA (5 uM), and DZ-003 (5 uM) over 12 hours, and the oxygen consumption rate (OCR) from respiration and extracellular acidification rate (ECAR) from glycolysis of the live cells is determined in a metabolic chamber in a 24-well plate format using a Seahorse XF analyzer (Seahorse XFe24, Agilent, Calif.). Reagents (drugs/controls) are added to the wells just before start of the recording at time 0, and the effect of the drugs on the basal mitochondrial function is recorded by the analyzer for about 12 hours (720 minutes). All reagents used are Agilent reagents. Cells are seeded and cultured in Seahorse XF RPMI Medium, pH 7.4. The seeding rate is 8×10^5 for the cells to reach about 90% confluency within about 24 hours when the analysis is started. The protocol is essentially performed as per the standard protocol of the manufacturer, removing the medium, washing the cells once with XF Real-Time ATP Rate Assay Medium, then starting the measurement as per the instrument's pre-programming and subsequent real-time measurements of OCAR/ECAR. Preliminary experiments indicate that the THAD as described herein may have an increased effect compared to DZ3a.

C4-2B MDVR cells [2] = assay: Annexin V / PI flow cytometry, cell death and apoptosis; conditions: for induced cell death after pretreatment with OATP inhibitor: 2 h pretreatment with OATP inhibitor telmisartan (TMS); for induced cell death after pretreatment with Midivi or Nec-1: 2 h pretreatment with mitochondrial fission inhibitor (Midivi) or necroptosis inhibitor (Nec-1); for cell death / apoptosis (Annexin V / PI): C4-2B MDVR, e.g. 5 uM, 6 h
Protocol: Example 5E: Cancer cells (here C4-2B MDVR) are pretreated with OATP inhibitor telmisartan (TMS), mevalonate (MVA), Midivi (Drp-1 inhibitor), and necrostatin-1 (Nec-1) for 2 h before treatment with vehicle, DHA, DZ-003 and/or a THAD (e.g. 5 uM each) for 6 h. Cells are subjected to annexin v staining (10 ul/10^6 cells) in the dark at RT for 15-20 min followed by PI staining at 1 mg/ml to determine the apoptosis of the cells based on the PI (red) and Annexin V (green) fluorescence by flow cytometry analysis using SONY SA3800 Spectral Analyzer. […] The vehicle and DHA treated cells remain viable (lower-left quadrant; blue population indicates live cells).

[3] = tested on: mitochondria and lysosomes of C4-2B MDVR cells; assay: Confocal microscopy of Mitotracker/Lysotracker staining (subcellular localization)
Protocol: Subcellular localization (mitochondria, lysosomes) may be performed as follows: Uptake of DZ3a, THAD, controls or other dyes into mitochondria and lysosomes of cancer cells is determined by virtue of each compound constituting a dye or comprising a dye moiety. Cells are plated on live-cell imaging chambers (World Precision Instrument) overnight. Cells are exposed to the dyes at different concentrations, and dye uptake is evaluated by a Perkin-Elmer Ultraview ERS spinning disc confocal microscope mounted on a Zeiss Axiovert 200 m inverted microscope equipped with a 37° C. stage warmer, incubator, and constant CO2 perfusion. A 60× or 100× Zeiss oil objective (numerical aperture, 1.4) is used for live cell images, and a Z-stack is created using the attached piezoelectric z-stepper motor. The 633-nm laser line of an […] (set at 60% power) is used to excite the dye. Light emission at 650 nm is detected and found to correlate directly with the dye concentrations in the cells. For comparative studies, the exposure time and laser intensity are kept identical for accurate intensity measurements. Pixel intensity is quantified using Metamorph 6.1 (Universal Imaging), and the mean pixel intensity is generated as gray level using the Region Statistics feature on the software. […]

C[C@@H]1CC[C@H]2[C@@H](C)C(OC(=O)CCCCCN3/C(=C/C=C4\CCCC(/C=C/C5=[N+](CCCCS(=O)(=O)[O-])c6ccccc6C5(C)C)=C4Cl)C(C)(C)c4ccccc43)O[C@@H]3OC4(C)CC[C@@H]1[C@]32OO4 (stereo in doubt) [DZ3a]
time at which lowering of OCR starts (C4-2B MDVR cells [1]): ≤ 250 min
time until which OCR continues to lower before sustained lowered OCR (C4-2B MDVR cells [1]): about 500 minutes
lowering of OCR (in words) (C4-2B MDVR cells [1]; over 12 hours): can greatly lower the mitochondrial oxygen consumption rate
mitochondrial oxygen consumption rate (OCR) after treatment (C4-2B MDVR cells [1]; over 12 hours, from about 700-800 pmol/min): less than 300 pmol/min
induced cell death after pretreatment with OATP inhibitor (C4-2B MDVR cells [2]): partially inhibited by an OATP inhibitor (TMA)
induced cell death after pretreatment with OATP inhibitor (C4-2B MDVR cells [2]; listed as DZ-003): can be partially inhibited by an OATP inhibitor (TMS)
induced cell death after pretreatment with mevalonate (MVA) (C4-2B MDVR cells [2]; 2 h pretreatment with mevalonate (MVA)): not so much by mevalonic acid (MVA)
induced cell death after pretreatment with Midivi or Nec-1 (C4-2B MDVR cells [2]): blocked by mitochondrial fission (Midivi) and necroptosis inhibitors (Nec-1)
induced cell death after pretreatment with Midivi or Nec-1 (C4-2B MDVR cells [2]; listed as DZ-003): can be blocked by mitochondrial fission (Midivi) and necroptosis inhibitor (Nec-1)
cell death / apoptosis (Annexin V / PI) (C4-2B MDVR cells [2]): induces cell death
cell death / apoptosis (Annexin V / PI) (C4-2B MDVR cells [2]; listed as DZ-003): induced cell death
co-localization with mitochondria and lysosomes [3]: co-localizes with mitochondria and lysosomes; also recorded: exclusive targeting to mitochondria and lysosomes
